SMILES strings stand for the structures. Where “and” joins values, the source holds several entries; their conditions need not be identical. Equal entries are not always repeated. Where two headings read alike, the source gives them in different places.

Assay [1] deals with isolated sciatic nerve of the rat. Put plainly: Evoked compound action potential (CAP) of the isolated rat sciatic nerve in a three-chamber bath (ex vivo): inhibition and recovery after washout. The conditions noted are these: for IT100 / IT0: 1.41 mg/mL.
The test system of the next assay is gastrocnemius muscle. Briefly: In vivo muscle CAP (mCAP, EMG integral) after intramuscular injection, gastrocnemius muscle. Further details: species or system rat. The conditions noted are these: 10.8 mg/kg intramuscular.
The target of assay [2] is T1, hNav1.6 sodium channels (SCN8A gene, expressed in CHO cells) (Homo sapiens, UniProt Q9UQD0).
T1 construct: expressed in transfected cells; host or cells: CHO cells
Put plainly: Automated patch clamp (PatchXpress 7000A), cloned hNav1.6 in CHO cells, tonic and phasic. Format: cell-based. The conditions noted are these: for inhibition at 2000 µM: CHO; for IC50: FIG. 42. As to the method: In this example, the in vitro effects of 2-heptanone on the following ion channels were evaluated at room temperature using the PatchXpress 7000A (Molecular Devices), an automatic parallel patch clamp system:
(§1) 1. Cloned hNav1.2 sodium channels (SCN2A gene, expressed in CHO cells). 2. Cloned hNav1.6 sodium channels (SCN8A gene, expressed in CHO cells).
The effects of 2-heptanone were evaluated at 0.73, 1.46, 2.19, and 2.92 mg/ml with each concentration tested in two cells (n=2). The duration of exposure to each concentration of 2-heptanone was 5 minutes. Tables 2 to 5 show the individual results from each concentration followed by individual concentration-response curves. The positive controls (Table 6) confirm the sensitivity of the test systems to inhibition.
. Br. J. Pharmacol. 164, 719-730). […]
Background: The patch-clamp technique gives a direct electrical read-out from membranes.

Assay [3] addresses T2, hNav1.2 sodium channels (SCN2A gene, expressed in CHO cells) (Homo sapiens, UniProt Q99250).
T2 construct: expressed in transfected cells; host or cells: CHO cells
Put plainly: Automated patch clamp (PatchXpress 7000A), cloned hNav1.2 in CHO cells, tonic and phasic. Format: cell-based. The conditions noted are these: for inhibition at 2000 µM: CHO.
Source text: as §1

Setting [4] is: 2 mM (0.46 mg/mL), single cells.

T2 sequence (Q99250 whole entry): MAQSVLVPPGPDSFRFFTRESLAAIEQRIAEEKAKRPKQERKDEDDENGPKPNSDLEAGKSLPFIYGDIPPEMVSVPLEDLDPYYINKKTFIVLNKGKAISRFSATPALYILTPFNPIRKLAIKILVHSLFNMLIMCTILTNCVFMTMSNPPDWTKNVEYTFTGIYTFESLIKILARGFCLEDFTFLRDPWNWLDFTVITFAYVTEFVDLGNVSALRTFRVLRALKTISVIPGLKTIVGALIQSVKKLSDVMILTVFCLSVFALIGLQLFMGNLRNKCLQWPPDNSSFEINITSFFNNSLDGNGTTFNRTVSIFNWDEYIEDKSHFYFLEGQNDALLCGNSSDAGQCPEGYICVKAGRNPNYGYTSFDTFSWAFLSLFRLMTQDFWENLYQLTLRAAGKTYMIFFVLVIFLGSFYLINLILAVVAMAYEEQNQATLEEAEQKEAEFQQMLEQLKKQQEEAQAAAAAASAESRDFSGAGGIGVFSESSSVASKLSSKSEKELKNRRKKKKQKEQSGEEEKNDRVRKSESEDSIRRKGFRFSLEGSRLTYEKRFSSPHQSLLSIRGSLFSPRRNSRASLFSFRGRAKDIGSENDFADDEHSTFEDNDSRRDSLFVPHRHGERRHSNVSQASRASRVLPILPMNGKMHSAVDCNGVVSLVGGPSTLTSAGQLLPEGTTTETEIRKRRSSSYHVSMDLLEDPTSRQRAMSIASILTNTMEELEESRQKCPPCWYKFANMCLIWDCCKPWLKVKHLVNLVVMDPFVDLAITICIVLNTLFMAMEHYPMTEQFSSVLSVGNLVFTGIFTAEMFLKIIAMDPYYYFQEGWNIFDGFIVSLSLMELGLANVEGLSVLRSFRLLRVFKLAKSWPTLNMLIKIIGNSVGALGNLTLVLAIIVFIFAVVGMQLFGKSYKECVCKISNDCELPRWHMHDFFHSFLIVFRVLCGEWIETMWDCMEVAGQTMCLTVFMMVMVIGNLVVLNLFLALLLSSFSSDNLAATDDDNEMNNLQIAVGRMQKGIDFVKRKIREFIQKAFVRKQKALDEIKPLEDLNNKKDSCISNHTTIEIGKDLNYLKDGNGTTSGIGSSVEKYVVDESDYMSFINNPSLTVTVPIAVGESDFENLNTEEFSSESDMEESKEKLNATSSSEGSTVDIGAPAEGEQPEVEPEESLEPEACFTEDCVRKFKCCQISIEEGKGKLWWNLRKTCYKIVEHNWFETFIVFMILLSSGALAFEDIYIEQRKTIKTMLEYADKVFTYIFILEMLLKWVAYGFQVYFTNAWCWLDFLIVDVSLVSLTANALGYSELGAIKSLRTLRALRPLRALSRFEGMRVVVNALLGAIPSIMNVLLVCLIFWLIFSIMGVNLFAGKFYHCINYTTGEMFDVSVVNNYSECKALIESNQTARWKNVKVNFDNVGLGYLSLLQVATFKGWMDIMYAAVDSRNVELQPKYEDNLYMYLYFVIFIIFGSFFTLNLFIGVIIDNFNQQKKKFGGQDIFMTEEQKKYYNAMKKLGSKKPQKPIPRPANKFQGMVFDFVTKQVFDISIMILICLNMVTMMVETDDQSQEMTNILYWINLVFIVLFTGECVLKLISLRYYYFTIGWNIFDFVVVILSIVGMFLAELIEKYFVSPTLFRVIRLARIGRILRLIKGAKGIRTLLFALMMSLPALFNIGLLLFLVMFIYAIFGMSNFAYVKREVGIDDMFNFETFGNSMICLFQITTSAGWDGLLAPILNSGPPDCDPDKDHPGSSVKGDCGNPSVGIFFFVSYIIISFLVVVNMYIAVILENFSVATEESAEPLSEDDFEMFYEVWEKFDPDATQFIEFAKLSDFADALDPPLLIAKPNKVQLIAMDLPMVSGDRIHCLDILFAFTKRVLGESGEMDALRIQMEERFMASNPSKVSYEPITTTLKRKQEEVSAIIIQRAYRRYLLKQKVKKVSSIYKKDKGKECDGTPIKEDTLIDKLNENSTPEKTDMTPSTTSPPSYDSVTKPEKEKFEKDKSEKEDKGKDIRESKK
T1 sequence (Q9UQD0 whole entry): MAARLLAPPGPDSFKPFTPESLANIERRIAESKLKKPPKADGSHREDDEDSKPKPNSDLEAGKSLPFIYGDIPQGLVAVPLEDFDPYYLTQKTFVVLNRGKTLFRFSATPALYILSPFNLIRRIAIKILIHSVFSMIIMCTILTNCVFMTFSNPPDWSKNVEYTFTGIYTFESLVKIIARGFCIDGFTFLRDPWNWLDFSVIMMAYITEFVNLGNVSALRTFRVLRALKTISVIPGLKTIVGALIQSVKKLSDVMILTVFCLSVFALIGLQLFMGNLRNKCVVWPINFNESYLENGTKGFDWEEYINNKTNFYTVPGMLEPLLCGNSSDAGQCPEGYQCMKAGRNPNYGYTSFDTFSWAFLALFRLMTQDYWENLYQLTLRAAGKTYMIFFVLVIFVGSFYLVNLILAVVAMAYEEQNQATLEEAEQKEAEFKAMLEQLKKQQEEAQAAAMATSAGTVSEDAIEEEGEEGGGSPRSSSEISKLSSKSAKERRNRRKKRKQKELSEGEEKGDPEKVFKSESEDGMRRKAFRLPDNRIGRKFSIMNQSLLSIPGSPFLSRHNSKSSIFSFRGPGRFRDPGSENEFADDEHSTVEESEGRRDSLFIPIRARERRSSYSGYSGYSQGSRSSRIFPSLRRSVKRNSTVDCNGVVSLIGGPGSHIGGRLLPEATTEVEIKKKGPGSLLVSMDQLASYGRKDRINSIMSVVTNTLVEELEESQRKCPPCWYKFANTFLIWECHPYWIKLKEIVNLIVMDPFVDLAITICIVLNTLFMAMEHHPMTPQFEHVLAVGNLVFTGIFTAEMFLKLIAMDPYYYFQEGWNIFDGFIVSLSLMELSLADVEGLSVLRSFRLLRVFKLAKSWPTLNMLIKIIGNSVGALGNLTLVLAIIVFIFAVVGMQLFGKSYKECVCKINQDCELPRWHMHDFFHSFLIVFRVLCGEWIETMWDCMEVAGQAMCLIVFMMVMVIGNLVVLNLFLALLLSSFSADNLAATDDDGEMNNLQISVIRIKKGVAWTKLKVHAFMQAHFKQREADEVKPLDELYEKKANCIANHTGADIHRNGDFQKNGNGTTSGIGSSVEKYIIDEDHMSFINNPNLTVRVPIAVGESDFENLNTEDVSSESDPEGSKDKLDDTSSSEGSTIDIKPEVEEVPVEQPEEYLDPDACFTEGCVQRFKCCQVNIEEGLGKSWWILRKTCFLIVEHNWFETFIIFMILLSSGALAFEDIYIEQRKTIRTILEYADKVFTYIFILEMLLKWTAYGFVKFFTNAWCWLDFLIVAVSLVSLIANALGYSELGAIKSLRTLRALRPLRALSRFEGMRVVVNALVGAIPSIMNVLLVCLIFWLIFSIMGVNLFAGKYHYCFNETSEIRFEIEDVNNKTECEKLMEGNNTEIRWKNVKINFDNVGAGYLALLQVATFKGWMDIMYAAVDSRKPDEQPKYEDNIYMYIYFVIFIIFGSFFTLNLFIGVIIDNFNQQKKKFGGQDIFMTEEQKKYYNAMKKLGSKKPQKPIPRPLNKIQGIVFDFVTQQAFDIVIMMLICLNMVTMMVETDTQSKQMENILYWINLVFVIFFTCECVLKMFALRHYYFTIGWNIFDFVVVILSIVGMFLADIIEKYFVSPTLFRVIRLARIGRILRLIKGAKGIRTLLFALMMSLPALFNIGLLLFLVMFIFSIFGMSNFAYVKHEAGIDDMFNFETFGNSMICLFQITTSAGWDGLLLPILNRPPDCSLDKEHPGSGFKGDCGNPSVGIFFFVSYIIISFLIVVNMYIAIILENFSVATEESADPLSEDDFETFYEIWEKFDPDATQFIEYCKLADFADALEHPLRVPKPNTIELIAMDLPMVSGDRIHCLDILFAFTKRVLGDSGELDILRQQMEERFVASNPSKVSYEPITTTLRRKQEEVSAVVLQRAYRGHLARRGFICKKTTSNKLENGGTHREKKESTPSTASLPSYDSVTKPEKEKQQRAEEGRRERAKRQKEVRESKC

With `CCN(CC)CC(=O)Nc1c(C)cccc1C` [lidocaine, 2-(diethylamino)-N-(2,6-dimethylphenyl)-acetamide, reference compound], the “IT100 / IT0” value is 320 ± 14.96 s in assay [1] and 320.3 ± 14.96 s in assay [1] (listed as Lidocaine). Besides, the IT0 in assay [1] (10 mM, stirred saline, individual nerves) was 90 s and 150 s. The “IT50 (time to inhibit CAP amplitude to 50% of control)” value in assay [1] (10 mg/mL) was 12.0 ± 0.95 s. The “recovery of the CAP after washout, % of control” value in assay [1] (after 1.41 mg/mL) is on record as 95%. For the same molecule, the “IC50 (concentration required to inhibit the CAP to 50% of control)” value in assay [1] (estimated from time-response curves, GraphPad Prism 5) was 337 ± 1 µg/mL. In addition, the “IT50 of the integral of mCAPs” value in the assay with gastrocnemius muscle turned out to be 19.30 ± 1.92 s. Also, the “recovery of mCAP, % of initial values after 3 h” value in the assay with gastrocnemius muscle is 70.3±8.67% and 70.3%. For the same molecule, the “Individual Data Points (% Inhibition), Nav1.6 (positive control)” value in assay [2] (setting [4]) stood at 59.3%. Moreover, the inhibition at 2000 µM worked out at 63.8% in assay [2] (read-out: Individual Data Points (% Inhibition), Nav1.6 (positive control), 2 mM (0.46 mg/mL), single cells); 61.5% in assay [2] (read-out: Mean % Inhibition of Nav1.6 (positive control), 2 mM (0.46 mg/mL)); 76.1% in assay [3] (read-out: Individual Data Points (% Inhibition), Nav1.2 (positive control), 2 mM (0.46 mg/mL), single cells); 75.5% in assay [3] (read-out: Mean % Inhibition of Nav1.2 (positive control), 2 mM (0.46 mg/mL)). Moreover, in assay [2] (Example 18, mean ± SEM), the “hNav1.6 IC50, phasic” value came out at 70 ± 10 µg/mL. In addition, the “hNav1.6 IC50, tonic” value in assay [2] (Example 18, mean ± SEM) amounted to 290 ± 10 µg/mL. The IC50 turned out to be 260 µM in assay [2] (read-out: Nav1.6 IC50, phasic) and 1100 µM in assay [2] (read-out: Nav1.6 IC50, tonic). For the same molecule, the “Individual Data Points (% Inhibition), Nav1.2 (positive control)” value in assay [3] (setting [4]) amounted to 74.9%.

For orientation: IC50 means the point on the concentration scale where inhibition reaches its midpoint.

The values above are taken from US20140107219A1, “LOCAL ANAESTHETIC” (VITA (EUROPE) LIMITED, priority 2011, published 2014).
